Measured values published in the Biogen ADME set (Fang et al. 2023).
Values after ≈ are worked out from the molar mass of the structure shown.

Settings: for aqueous solubility: pH 6.8

SMILES	MDR1-MDCK efflux ratio	intrinsic clearance, human liver microsomes	intrinsic clearance, rat liver microsomes	aqueous solubility	fraction unbound, human plasma	fraction unbound, rat plasma
COc1ccc(-c2nc(CN3CCC[C@H](O)C3)no2)cc1	0.841	0.689 L/h/kg	2.88 L/h/kg	0.0368 mg/mL (≈ 127 µM)		
COc1cc2cc(N)c(C3CCNCC3)nc2cc1OC		≤ 0.284 L/h/kg	≤ 0.64 L/h/kg			
CN1CCN(C(=O)C2(NC(=O)c3cc(Cl)c4c(c3)OCO4)CCCC2)CC1		≤ 0.284 L/h/kg	2.26 L/h/kg	0.079 mg/mL (≈ 201 µM)		
COCc1nc(-c2cc(F)ccc2F)c(C)s1	0.684	7.98 L/h/kg	25.5 L/h/kg	0.0036 mg/mL (≈ 14.1 µM)		
Clc1cc2c(NC3CCCC3)nnc(-c3ccncc3)c2cc1Cl	0.729			0.00019 mg/mL (≈ 0.529 µM)		
CC(C)c1nc2c(n1C)CCN(c1ncnc3ccsc13)C2	3.28	1.3 L/h/kg	34 L/h/kg	0.0544 mg/mL (≈ 173 µM)		
Cn1cc(CNc2ncccn2)c(C(C)(C)C)n1	0.905	≤ 0.284 L/h/kg	21.8 L/h/kg			
Cc1c(C(=O)NC2CCN(CC3CCCCC3)CC2)cnn1C	6.82	≤ 0.284 L/h/kg	≤ 0.64 L/h/kg	0.0489 mg/mL (≈ 154 µM)		
Cn1ncnc1COc1nn2c(-c3c(F)cccc3F)nnc2cc1C1CCC1	73.4	≤ 0.284 L/h/kg	2.45 L/h/kg	0.0414 mg/mL (≈ 104 µM)		
CCN(C(=O)CO)[C@H]1CN(/C(=N\C#N)Nc2cccc(OC(F)F)c2)N=C1c1ccc(Cl)c(Cl)c1		2.7 L/h/kg	11 L/h/kg	0.00233 mg/mL (≈ 4.44 µM)		

Continued, values first:

MDR1-MDCK efflux ratio	intrinsic clearance, human liver microsomes	intrinsic clearance, rat liver microsomes	aqueous solubility	fraction unbound, human plasma	fraction unbound, rat plasma	SMILES
2.46	≤ 0.284 L/h/kg	1.58 L/h/kg	0.0383 mg/mL (≈ 138 µM)			O=C(NCc1cccnc1)c1cnn(-c2ccccc2)c1
			0.0423 mg/mL (≈ 94.6 µM)			O=C(CCn1cc(Br)cn1)Nc1nc2ccccc2n1CCN1CCOCC1
	≤ 0.284 L/h/kg	≤ 0.64 L/h/kg	0.0363 mg/mL (≈ 147 µM)			Cc1ccccc1NC(=O)CN1C(=O)CCC1=O
2.44	21.6 L/h/kg	152 L/h/kg				O=C(c1ccc(Cl)cc1)N1CCC[C@@H](C(=O)N2CCc3ccccc3C2)C1
0.675	2.37 L/h/kg	91.8 L/h/kg	0.0095 mg/mL (≈ 34 µM)	0.00243		c1ccc(-c2ccc(CN3CCCCCCC3)cc2)cc1
	14.6 L/h/kg	135 L/h/kg				Cc1ccc(S(=O)(=O)N2CCCc3ccc(NS(=O)(=O)c4cc(F)ccc4F)cc32)cc1
	6.27 L/h/kg	40.1 L/h/kg	0.00385 mg/mL (≈ 8.32 µM)			C[C@@H](CN1CCC(n2c(=O)[nH]c3cc(Cl)ccc32)CC1)NC(=O)c1ccc2ccccc2c1
0.825	0.826 L/h/kg	4.08 L/h/kg	0.0339 mg/mL (≈ 138 µM)			O=C(COCC1CC1)N1CCCc2ncccc21
2.39	0.815 L/h/kg	14.6 L/h/kg				Cc1ccc2[nH]c(CNC(=O)c3ncoc3C)nc2c1C
	≤ 0.284 L/h/kg	27.8 L/h/kg	0.0636 mg/mL (≈ 215 µM)			CONC(=O)c1cn(-c2ccc(Br)cc2)cn1
0.734	≤ 0.284 L/h/kg	2.65 L/h/kg		0.221	0.203	COc1ccc(CCCN2CCN(c3cnn(C)c3)C(=O)C2)cc1F
	0.961 L/h/kg	5.48 L/h/kg	0.0039 mg/mL (≈ 18.4 µM)			O=C(Nc1ccccc1)Nc1ccccc1
